Measurements reported in patent US6825206B1 (priority 2000, dated 2004).

How the values were obtained:
U937 leukemia cell line = assay: toxicity against U937 leukemia cell line; assay type: cell-based, human
Text: Untreated P388 WT (wild type) cells show dark wells where cells are viable.

human topI = molecular target: T1, human topI (Homo sapiens, UniProt P11387); assay type: biochemical; conditions: band of nicked DNA increases with concentration; FIG. 4
T1 sequence (P11387 1-765): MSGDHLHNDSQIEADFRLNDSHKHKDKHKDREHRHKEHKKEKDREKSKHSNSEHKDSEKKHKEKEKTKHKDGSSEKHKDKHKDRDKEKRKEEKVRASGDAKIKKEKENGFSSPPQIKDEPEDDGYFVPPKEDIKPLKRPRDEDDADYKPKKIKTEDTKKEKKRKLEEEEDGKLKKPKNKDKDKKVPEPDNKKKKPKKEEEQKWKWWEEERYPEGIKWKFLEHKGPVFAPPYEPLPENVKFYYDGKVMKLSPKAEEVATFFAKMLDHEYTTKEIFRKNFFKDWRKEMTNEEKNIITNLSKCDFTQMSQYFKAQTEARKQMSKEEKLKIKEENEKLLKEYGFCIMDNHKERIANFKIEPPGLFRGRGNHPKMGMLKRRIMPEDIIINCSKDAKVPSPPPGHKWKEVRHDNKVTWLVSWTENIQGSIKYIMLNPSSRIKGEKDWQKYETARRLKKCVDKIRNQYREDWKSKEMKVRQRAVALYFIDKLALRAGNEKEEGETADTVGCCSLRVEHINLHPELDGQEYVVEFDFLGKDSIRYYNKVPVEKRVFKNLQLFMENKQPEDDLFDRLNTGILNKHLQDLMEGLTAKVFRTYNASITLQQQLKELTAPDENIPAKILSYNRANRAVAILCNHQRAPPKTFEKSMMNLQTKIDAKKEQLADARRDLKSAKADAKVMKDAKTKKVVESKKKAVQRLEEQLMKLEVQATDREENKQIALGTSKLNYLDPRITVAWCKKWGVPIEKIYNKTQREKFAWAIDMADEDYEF
Text: DNA cleavage produced by human topI in pSK DNA;
The nicked DNA migrates to position 2 on these gels.

[1] = molecular target: T2, camptothecin-topo I-DNA complex (Homo sapiens, UniProt P11387); assay type: biochemical; conditions: after addition of NaCl; FIG. 5
T2 sequence (P11387 1-765): T1 sequence (P11387 1-765)
Text: In this assay, nicked DNA is first formed by the action of the camptothecins. Addition of NaCl perturbs the equilibrium and destabilizes the camptothecin-topo I-DNA complex. The persistence of the nicked DNA under these conditions indicates increased stability of the cleavable complex.

| SMILES | IC50 (U937 leukemia cell line) [nM] | induction of nicked DNA (human topI) | persistence of nicked DNA / stabilization of the cleavable complex [1] | time after which nicked DNA is difficult to detect [1] [min] |
| --- | --- | --- | --- | --- |
| CC[C@@]1(O)C(=O)OCc2c1cc1n(c2=O)Cc2c-1nc1cc3c(cc1c2CCl)OCO3 [CMMDC, 7-chloromethyl-10,11-methylenedioxy-20(S)-camptothecin] | 7 |  |  |  |
| CC[C@@]1(O)C(=O)OCc2c1cc1n(c2=O)Cc2cc3cc4c(cc3nc2-1)OCO4 [MDC, 10,11-methylenedioxy-20(S)-camptothecin] |  | induce nicked DNA | show nicked DNA for longer periods of time |  |
| CC[C@@]1(O)C(=O)OCc2c1cc1n(c2=O)Cc2cc3ccccc3nc2-1 [CPT, camptothecin] |  | induce nicked DNA |  | 3 |
